Source: PMC8533642 (Journal of medicinal chemistry, 2021)
Read-outs that look alike come from different tables or passages of the source. Values belong to the compound of their own block, whether it stands above or below them. Square brackets hold non-standard residues; d marks the D form. Peptide text beside a SMILES is read from it. Phe(4-I) = N[C@@H](Cc1ccc(I)cc1)C(=O)O; dPhe(4-I) = N[C@H](Cc1ccc(I)cc1)C(=O)O; 2Nal = N[C@@H](Cc1ccc2ccccc2c1)C(=O)O; d2Nal = N[C@H](Cc1ccc2ccccc2c1)C(=O)O

Legend:
mMC3R [1] = biological target: T1, mMC3R (Mus musculus, UniProt P33033); assay: AlphaScreen cAMP agonist assay, HEK293 cells stably expressing mMC3R; assay type: cell-based; details: at 100 μM
T1 sequence (P33033 whole entry): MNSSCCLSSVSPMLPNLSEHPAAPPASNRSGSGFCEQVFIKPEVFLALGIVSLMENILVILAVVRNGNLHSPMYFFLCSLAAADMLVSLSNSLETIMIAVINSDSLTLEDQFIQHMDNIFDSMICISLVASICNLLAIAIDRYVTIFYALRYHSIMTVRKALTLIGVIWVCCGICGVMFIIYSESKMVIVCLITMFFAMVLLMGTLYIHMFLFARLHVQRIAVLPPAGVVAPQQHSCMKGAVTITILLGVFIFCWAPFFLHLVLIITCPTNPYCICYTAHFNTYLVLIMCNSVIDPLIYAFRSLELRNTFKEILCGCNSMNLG

mMC1R = mMC1R (Mus musculus, UniProt Q01727); assay: AlphaScreen cAMP agonist assay, HEK293 cells stably expressing mMC1R; assay type: cell-based; details: for mMC1R partial agonist percentage of receptor activation relative to NDP-MSH: partial agonists; for mMC1R agonist activity in words: full agonist = 90% of maximal NDP-MSH signal
mMC1R, sequence (Q01727 whole entry): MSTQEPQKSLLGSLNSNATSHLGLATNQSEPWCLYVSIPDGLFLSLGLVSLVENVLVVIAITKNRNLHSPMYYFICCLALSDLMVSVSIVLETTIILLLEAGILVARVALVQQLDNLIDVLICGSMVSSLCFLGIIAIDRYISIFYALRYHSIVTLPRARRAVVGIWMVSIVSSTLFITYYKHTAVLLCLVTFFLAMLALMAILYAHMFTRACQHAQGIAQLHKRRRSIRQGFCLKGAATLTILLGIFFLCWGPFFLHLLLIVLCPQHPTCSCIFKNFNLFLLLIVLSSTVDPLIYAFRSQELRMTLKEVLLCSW

mMC4R [2] = biological target: T2, mMC4R (Mus musculus, UniProt P56450); details: mMC4R versus mMC3R antagonist potency
T2 sequence (P56450 whole entry): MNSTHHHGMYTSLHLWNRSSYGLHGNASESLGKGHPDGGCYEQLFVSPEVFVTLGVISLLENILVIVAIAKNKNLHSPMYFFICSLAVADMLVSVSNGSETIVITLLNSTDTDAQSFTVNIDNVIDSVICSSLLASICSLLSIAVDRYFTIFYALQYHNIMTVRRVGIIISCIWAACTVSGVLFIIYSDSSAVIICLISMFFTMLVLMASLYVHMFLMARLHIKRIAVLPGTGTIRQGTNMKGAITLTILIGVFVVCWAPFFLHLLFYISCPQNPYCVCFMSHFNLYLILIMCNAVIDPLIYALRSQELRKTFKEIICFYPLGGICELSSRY

mMC5R = mMC5R (Mus musculus, UniProt P41149); assay: AlphaScreen cAMP agonist assay, HEK293 cells stably expressing mMC5R; assay type: cell-based; details: for mMC5R percent maximal stimulatory response (compared to NDP-MSH): at 100 μM; for mMC5R EC50: agonist, >100,000 = no agonist activity up to 100 μM
mMC5R, sequence (P41149 whole entry): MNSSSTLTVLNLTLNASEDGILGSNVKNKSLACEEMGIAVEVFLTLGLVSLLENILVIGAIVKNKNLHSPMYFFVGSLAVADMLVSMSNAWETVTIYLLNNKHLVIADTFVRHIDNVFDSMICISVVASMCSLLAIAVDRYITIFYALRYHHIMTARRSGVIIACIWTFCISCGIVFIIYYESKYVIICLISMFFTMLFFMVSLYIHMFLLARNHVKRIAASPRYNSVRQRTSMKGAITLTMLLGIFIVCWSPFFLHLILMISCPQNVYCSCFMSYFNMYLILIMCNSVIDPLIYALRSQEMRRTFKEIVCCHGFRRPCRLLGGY

mMC4R [3] = biological target: T2, mMC4R; details: cited from earlier work
mMC3R [4] = biological target: T1, mMC3R; details: earlier report; cited from earlier work
mMC4R [5] = biological target: T2, mMC4R; details: earlier report; cited from earlier work
[6] = system: mouse B16-F10 melanoma cells; details: 30 and 100 μM, 100 nM α-MSH, 72 h; cited from earlier work
[7] = compared to a control formulation lacking glycinamide; cited from earlier work
hMC4R = details: read-out: hMC4R IC50; tripeptide SAR study; cited from earlier work
hMC1R = details: cited from earlier work
hMC3R = details: cited from earlier work
human (h)MC4R = details: cited from earlier work
MC5R = details: cited from earlier work
MC4R = details: at 2 μM; cited from earlier work
MC3R = details: at 2 μM; cited from earlier work
MC1R = details: at 2 μM; cited from earlier work
hMC5R = details: cited from earlier work

mMC3R percent maximal stimulatory response (compared to NDP-MSH) (mMC3R [1]): 35% @100μM
Compound: CC(=O)N[C@H](Cc1ccc2ccccc2c1)C(=O)N[C@H](Cc1ccc2ccccc2c1)C(=O)N[C@H](Cc1ccc2ccccc2c1)C(=O)N[C@@H](CCCNC(=N)N)C(N)=O [Peptide 3, Ac-DNal(2’)-DNal(2’)-DNal(2’)-Arg-NH2]

mMC3R percent maximal stimulatory response (compared to NDP-MSH) (mMC3R [1]): 35% @100μM
Compound: CC(=O)N[C@H](Cc1ccc2ccccc2c1)C(=O)N[C@H](Cc1ccc2ccccc2c1)C(=O)N[C@@H](Cc1c[nH]c2ccccc12)C(=O)N[C@@H](CCCNC(=N)N)C(N)=O [Peptide 6, Ac-DNal(2’)-DNal(2’)-Trp-Arg-NH2] (Ac-[d2Nal][d2Nal]WR-NH2)

Compound: CC(=O)N[C@H](Cc1ccc2ccccc2c1)C(=O)N[C@@H](CCCNC(=N)N)C(=O)N[C@H](Cc1ccc2ccccc2c1)C(=O)N[C@H](CCCCN)C(N)=O [Peptide 13, Ac-DNal(2’)-Arg-DNal(2’)-DLys-NH2] (Ac-[d2Nal]R[d2Nal][dK]-NH2)
mMC1R partial agonist percentage of receptor activation relative to NDP-MSH (mMC1R): 30 % NDP
selectivity for the mMC4R over the mMC3R (antagonist) (mMC4R [2]): more than 150 fold

Compound: CC(=O)N[C@H](Cc1ccc2ccccc2c1)C(=O)N[C@@H](CCCNC(=N)N)C(=O)N[C@H](Cc1ccc2ccccc2c1)C(=O)N[C@H](Cc1ccc2ccccc2c1)C(N)=O [Peptide 14, Ac-DNal(2’)-Arg-DNal(2’)-DNal(2’)-NH2] (Ac-[d2Nal]R[d2Nal][d2Nal]-NH2)
mMC1R partial agonist percentage of receptor activation relative to NDP-MSH (mMC1R): 85 % NDP
mMC3R percent maximal stimulatory response (compared to NDP-MSH) (mMC3R [1]): 50% @100μM
mMC5R percent maximal stimulatory response (compared to NDP-MSH) (mMC5R): 20% @100μM

Compound: CC(=O)N[C@H](Cc1ccc2ccccc2c1)C(=O)N[C@@H](CCCNC(=N)N)C(=O)N[C@H](Cc1ccc2ccccc2c1)C(=O)N[C@@H](CCCNC(=N)N)C(N)=O [Peptide 15, Ac-DNal(2’)-Arg-DNal(2’)-Arg-NH2] (Ac-[d2Nal]R[d2Nal]R-NH2)
mMC1R partial agonist percentage of receptor activation relative to NDP-MSH (mMC1R): 60 % NDP
selectivity for the mMC4R over the mMC3R (antagonist) (mMC4R [2]): more than 150 fold

Compound: CC(=O)N[C@H](Cc1ccc2ccccc2c1)C(=O)N[C@@H](CCCNC(=N)N)C(=O)N[C@@H](Cc1c[nH]c2ccccc12)C(=O)N[C@H](CCCCN)C(N)=O [Peptide 16, Ac-DNal(2’)-Arg-Trp-DLys-NH2] (Ac-[d2Nal]RW[dK]-NH2)
selectivity for the mMC4R over the mMC3R (antagonist) (mMC4R [2]): more than 150 fold

mMC3R percent maximal stimulatory response (compared to NDP-MSH) (mMC3R [1]): 40% @100μM
Compound: CC(=O)N[C@H](Cc1ccc2ccccc2c1)C(=O)N[C@@H](CCCNC(=N)N)C(=O)N[C@@H](Cc1c[nH]c2ccccc12)C(=O)N[C@H](Cc1ccc2ccccc2c1)C(N)=O [Peptide 17, Ac-DNal(2’)-Arg-Trp-DNal(2’)-NH2] (Ac-[d2Nal]RW[d2Nal]-NH2)

mMC1R agonist activity in words (mMC1R): full agonist activity
Compound: CC(=O)N[C@H](Cc1ccc2ccccc2c1)C(=O)N[C@@H](CCCNC(=N)N)C(=O)N[C@H](Cc1ccc(I)cc1)C(=O)N[C@H](Cc1ccc2ccccc2c1)C(N)=O [Peptide 20, Ac-DNal(2’)-Arg-DPhe(pI)-DNal(2’)-NH2] (Ac-[d2Nal]R[dPhe(4-I)][d2Nal]-NH2)
mMC4R partial agonist efficacy, % of the maximal NDP-MSH signal, previously reported (mMC4R [3]; earlier report): 37%
mMC3R pA2, previously reported (mMC3R [4]): 5.6
mMC4R pA2, previously reported (mMC4R [5]): 5.9

Compound: CC(=O)N[C@H](Cc1ccc2ccccc2c1)C(=O)N[C@@H](CCCNC(=N)N)C(=O)N[C@@H](Cc1ccc2ccccc2c1)C(=O)N[C@H](CCCCN)C(N)=O [Peptide 22, Ac-DNal(2’)-Arg-Nal(2’)-DLys-NH2] (Ac-[d2Nal]R[2Nal][dK]-NH2)
mMC1R partial agonist percentage of receptor activation relative to NDP-MSH (mMC1R): 50 % NDP

mMC3R percent maximal stimulatory response (compared to NDP-MSH) (mMC3R [1]): 30% @100μM
mMC5R percent maximal stimulatory response (compared to NDP-MSH) (mMC5R): 25% @100μM
Compound: CC(=O)N[C@H](Cc1ccc2ccccc2c1)C(=O)N[C@@H](CCCNC(=N)N)C(=O)N[C@@H](Cc1ccc2ccccc2c1)C(=O)N[C@H](Cc1ccc2ccccc2c1)C(N)=O [Peptide 23, Ac-DNal(2’)-Arg-Nal(2’)-DNal(2’)-NH2] (Ac-[d2Nal]R[2Nal][d2Nal]-NH2)

mMC5R EC50 (mMC5R): inactive
Compound: CC(=O)N[C@H](Cc1ccc(I)cc1)C(=O)N[C@H](Cc1ccc2ccccc2c1)C(=O)N[C@@H](Cc1c[nH]c2ccccc12)C(=O)N[C@@H](CCCNC(=N)N)C(N)=O [Peptide 30, Ac-DPhe(pI)-DNal(2’)-Trp-Arg-NH2]

mMC3R percent maximal stimulatory response (compared to NDP-MSH) (mMC3R [1]): 20% @100μM
Compound: CC(=O)N[C@H](Cc1ccc(I)cc1)C(=O)N[C@H](Cc1ccc2ccccc2c1)C(=O)N[C@@H](Cc1ccc2ccccc2c1)C(=O)N[C@H](CCCCN)C(N)=O [Peptide 34, Ac-DPhe(pI)-DNal(2’)-Nal(2’)-DLys-NH2] (Ac-[dPhe(4-I)][d2Nal][2Nal][dK]-NH2)

mMC3R percent maximal stimulatory response (compared to NDP-MSH) (mMC3R [1]): 45% @100μM
mMC5R percent maximal stimulatory response (compared to NDP-MSH) (mMC5R): 20% @100μM
Compound: CC(=O)N[C@H](Cc1ccc(I)cc1)C(=O)N[C@@H](CCCNC(=N)N)C(=O)N[C@H](Cc1ccc2ccccc2c1)C(=O)N[C@H](Cc1ccc2ccccc2c1)C(N)=O [Peptide 38, Ac-DPhe(pI)-Arg-DNal(2’)-DNal(2’)-NH2] (Ac-[dPhe(4-I)]R[d2Nal][d2Nal]-NH2)

mMC3R percent maximal stimulatory response (compared to NDP-MSH) (mMC3R [1]): 25% @100μM
Compound: CC(=O)N[C@H](Cc1ccc(I)cc1)C(=O)N[C@@H](CCCNC(=N)N)C(=O)N[C@@H](Cc1c[nH]c2ccccc12)C(=O)N[C@H](Cc1ccc2ccccc2c1)C(N)=O [Peptide 41, Ac-DPhe(pI)-Arg-Trp-DNal(2’)-NH2] (Ac-[dPhe(4-I)]RW[d2Nal]-NH2)

Compound: CC(=O)N[C@H](Cc1ccc(I)cc1)C(=O)N[C@@H](CCCNC(=N)N)C(=O)N[C@@H](Cc1c[nH]c2ccccc12)C(=O)N[C@@H](CCCNC(=N)N)C(N)=O [Peptide 42, Ac-DPhe(pI)-Arg-Trp-Arg-NH2] (Ac-[dPhe(4-I)]RWR-NH2)
mMC1R partial agonist percentage of receptor activation relative to NDP-MSH (mMC1R): 50 % NDP
mMC3R percent maximal stimulatory response (compared to NDP-MSH) (mMC3R [1]): 25% @100μM

mMC1R agonist activity in words (mMC1R): full agonist activity
Compound: CC(=O)N[C@H](Cc1ccc(I)cc1)C(=O)N[C@@H](CCCNC(=N)N)C(=O)N[C@H](Cc1ccc(I)cc1)C(=O)N[C@H](CCCCN)C(N)=O [Peptide 43, Ac-DPhe(pI)-Arg-DPhe(pI)-DLys-NH2] (Ac-[dPhe(4-I)]R[dPhe(4-I)][dK]-NH2)

mMC1R agonist activity in words (mMC1R): full agonist activity
mMC3R percent maximal stimulatory response (compared to NDP-MSH) (mMC3R [1]): 40% @100μM
mMC5R percent maximal stimulatory response (compared to NDP-MSH) (mMC5R): 65% @100μM
Compound: CC(=O)N[C@H](Cc1ccc(I)cc1)C(=O)N[C@@H](CCCNC(=N)N)C(=O)N[C@H](Cc1ccc(I)cc1)C(=O)N[C@H](Cc1ccc2ccccc2c1)C(N)=O [Peptide 44, Ac-DPhe(pI)-Arg-DPhe(pI)-DNal(2’)-NH2] (Ac-[dPhe(4-I)]R[dPhe(4-I)][d2Nal]-NH2)

mMC1R agonist activity in words (mMC1R): full agonist activity
Compound: CC(=O)N[C@H](Cc1ccc(I)cc1)C(=O)N[C@@H](CCCNC(=N)N)C(=O)N[C@H](Cc1ccc(I)cc1)C(=O)N[C@@H](CCCNC(=N)N)C(N)=O [Peptide 45, Ac-DPhe(pI)-Arg-DPhe(pI)-Arg-NH2] (Ac-[dPhe(4-I)]R[dPhe(4-I)]R-NH2)

mMC1R agonist activity in words (mMC1R): partially stimulate
mMC5R EC50 (mMC5R): did not possess agonist activity
Compound: CC(=O)N[C@@H](Cc1ccc(I)cc1)C(=O)N[C@@H](Cc1ccc2ccccc2c1)C(=O)N[C@@H](Cc1ccc(I)cc1)C(=O)N[C@@H](CCCNC(=N)N)C(N)=O [Peptide 49, Ac-Phe(pI)-Nal(2’)-Phe(pI)-Arg-NH2] (Ac-[Phe(4-I)][2Nal][Phe(4-I)]R-NH2)

Compound: NCC(N)=O [glycinamide]
effect on α-MSH-stimulated melanin production [6]: possessed anti-melanogenic activity
effect on facial skin pigmentation [7]: decreased melanin index and skin pigmentation

Compound: Ac-DNal(2’)-Arg-DNal(2’)
IC50 (hMC4R): 36.5 nM

Compound: Ac-DNal(2’)-Arg-Nal(2’) [MCL0020]
IC50 (hMC4R): 15.4 nM
concentration up to which radiolabeled NDP-MSH was not displaced at hMC1R (hMC1R): > 10 µM
binding affinity at hMC3R (hMC3R): 1115 nM
binding affinity at hMC4R (human (h)MC4R): 11.63 nM

Compound: Ac-His-DPhe-Arg-Trp-NH2 [reference compound]
mMC4R agonist potency in words (mMC4R [3]): nanomolar agonist potency

Compound: Ac-Nle-c[Asp-Oic-DBip-Pip-Trp-Lys]-NH2
EC50 (MC5R; read-out: concentration activating the MC5R): 0.99 nM
MC4R activation (MC4R): up to 40%
MC3R activation (MC3R): up to 40%
MC1R activation (MC1R): up to 40%

Compound: Ac-Nle-c[Asp-Pro-DNal(2’)-Arg-Trp-Lys]-NH2 [PG901]
hMC5R agonist potency in words (hMC5R): sub-nanomolar agonist potency

Compound: Ac-Oic-DBip-Pip-Trp-NH2
EC50 (MC5R; read-out: MC5R agonist potency): 1200 nM

Compound: Ac-Ser-Tyr-Ser-Nle-Glu-Oic-DBip-Pip-Trp-Gly-Lys-Pro-Val-NH2 (WGKPV; N-terminal Ac-Ser-Tyr-Ser-Nle-Glu-Oic-DBip-Pip; C-terminal amide; printed: Trp-Gly-Lys-Pro-Val-)
MC5R agonist potency in words (MC5R): sub-nanomolar MC5R agonist

Compound: H-RFWG-NH2
effect on α-MSH-stimulated melanin production [6]: inhibited α-MSH-stimulated melanin production

Compound: H-RLWG-NH2
effect on α-MSH-stimulated melanin production [6]: inhibited α-MSH-stimulated melanin production
